From PubChem BioAssay AID1259407 (Chemical Carcinogenesis Research Information System (CCRIS), 2018)
Calls of active or inactive are those of the source. The rule behind the calls is not given here.

System: CCRIS mutagenicity, Ames/micronucleus/aberration tests
Experiment: CCRIS mutagenicity studies
[1] = Test System: AMES SALMONELLA TYPHIMURIUM, Strain/Indicator: TA98, Metabolic Activation: NONE, Method: PREINCUBATION
[2] = Test System: AMES SALMONELLA TYPHIMURIUM, Strain/Indicator: TA98, Metabolic Activation: RAT, LIVER, S-9, AROCLOR 1254, Method: PREINCUBATION
[3] = Test System: AMES SALMONELLA TYPHIMURIUM, Strain/Indicator: TA100, Metabolic Activation: NONE, Method: PREINCUBATION
[4] = Test System: AMES SALMONELLA TYPHIMURIUM, Strain/Indicator: TA100, Metabolic Activation: RAT, LIVER, S-9, AROCLOR 1254, Method: PREINCUBATION
[5] = Test System: AMES SALMONELLA TYPHIMURIUM, Strain/Indicator: TA1535, Metabolic Activation: NONE, Method: PREINCUBATION
[6] = Test System: AMES SALMONELLA TYPHIMURIUM, Strain/Indicator: TA1537, Metabolic Activation: NONE, Method: PREINCUBATION
[7] = Test System: AMES SALMONELLA TYPHIMURIUM, Strain/Indicator: TA98, Metabolic Activation: NONE, Method: STANDARD PLATE
[8] = Test System: AMES SALMONELLA TYPHIMURIUM, Strain/Indicator: TA100, Metabolic Activation: NONE, Method: STANDARD PLATE
[9] = Test System: AMES SALMONELLA TYPHIMURIUM, Strain/Indicator: TA98, Metabolic Activation: RAT, LIVER, S-9, AROCLOR 1254, Method: STANDARD PLATE

## Brc1c(Br)c(Br)c(Br)c(Br)c1Br
Test System: AMES SALMONELLA TYPHIMURIUM, Strain/Indicator: TA98, Metabolic Activation: HAMSTER, LIVER, S-9, AROCLOR 1254, Method: PREINCUBATION
  mutagenic call: inactive; negative
[1]
  mutagenic call: inactive; negative
[2]
  mutagenic call: inactive; negative
Test System: AMES SALMONELLA TYPHIMURIUM, Strain/Indicator: TA100, Metabolic Activation: HAMSTER, LIVER, S-9, AROCLOR 1254, Method: PREINCUBATION
  mutagenic call: inactive; negative
[3]
  mutagenic call: inactive; negative
[4]
  mutagenic call: inactive; negative
Test System: AMES SALMONELLA TYPHIMURIUM, Strain/Indicator: TA1535, Metabolic Activation: HAMSTER, LIVER, S-9, AROCLOR 1254, Method: PREINCUBATION
  mutagenic call: inactive; negative
[5]
  mutagenic call: inactive; negative
Test System: AMES SALMONELLA TYPHIMURIUM, Strain/Indicator: TA1535, Metabolic Activation: RAT, LIVER, S-9, AROCLOR 1254, Method: PREINCUBATION
  mutagenic call: inactive; negative
Test System: AMES SALMONELLA TYPHIMURIUM, Strain/Indicator: TA1537, Metabolic Activation: HAMSTER, LIVER, S-9, AROCLOR 1254, Method: PREINCUBATION
  mutagenic call: inactive; negative
[6]
  mutagenic call: inactive; negative
Test System: AMES SALMONELLA TYPHIMURIUM, Strain/Indicator: TA1537, Metabolic Activation: RAT, LIVER, S-9, AROCLOR 1254, Method: PREINCUBATION
  mutagenic call: inactive; negative

## O=[N+]([O-])c1cccc(Br)c1
[1]
  mutagenic call: inactive; negative
Test System: AMES SALMONELLA TYPHIMURIUM, Strain/Indicator: TA98, Metabolic Activation: RAT, LIVER, S-9, KANECHLOR 500, Method: PREINCUBATION
  mutagenic call: inactive; negative
Test System: AMES SALMONELLA TYPHIMURIUM, Strain/Indicator: TA100, Metabolic Activation: RAT, LIVER, S-9, KANECHLOR 500, Method: PREINCUBATION
  mutagenic call: active; positive

## CC(=O)Nc1ccc(Oc2ccc(N(O)C(C)=O)cc2)cc1
Test System: AMES SALMONELLA TYPHIMURIUM, Strain/Indicator: TA98(1,8-DNP6), Metabolic Activation: NONE, Method: PREINCUBATION
  mutagenic call: active; positive
Test System: AMES SALMONELLA TYPHIMURIUM, Strain/Indicator: TA98(1,8-DNP6), Metabolic Activation: RAT, LIVER, S-9, AROCLOR 1254, Method: PREINCUBATION
  mutagenic call: active; positive
Test System: AMES SALMONELLA TYPHIMURIUM, Strain/Indicator: TA98(NR), Metabolic Activation: NONE, Method: PREINCUBATION
  mutagenic call: active; positive
Test System: AMES SALMONELLA TYPHIMURIUM, Strain/Indicator: TA98(NR), Metabolic Activation: RAT, LIVER, S-9, AROCLOR 1254, Method: PREINCUBATION
  mutagenic call: active; positive
[1]
  mutagenic call: active; positive
[2]
  mutagenic call: active; positive
Test System: AMES SALMONELLA TYPHIMURIUM, Strain/Indicator: TA100(NR), Metabolic Activation: NONE, Method: PREINCUBATION
  mutagenic call: active; positive
Test System: AMES SALMONELLA TYPHIMURIUM, Strain/Indicator: TA100(NR), Metabolic Activation: RAT, LIVER, S-9, AROCLOR 1254, Method: PREINCUBATION
  mutagenic call: active; positive
[3]
  mutagenic call: active; positive
[4]
  mutagenic call: active; positive

## CC(=O)OCc1c(O)cc2c(c1O)C(=O)c1ccccc1C2=O
[1]
  mutagenic call: active; positive
Test System: AMES SALMONELLA TYPHIMURIUM, Strain/Indicator: TA98, Metabolic Activation: RAT, LIVER, S-9, PCB, Method: PREINCUBATION
  mutagenic call: active; positive
[3]
  mutagenic call: active; positive
Test System: AMES SALMONELLA TYPHIMURIUM, Strain/Indicator: TA100, Metabolic Activation: RAT, LIVER, S-9, PCB, Method: PREINCUBATION
  mutagenic call: active; positive

## NC(=O)c1cnccn1
Test System: AMES SALMONELLA TYPHIMURIUM, Strain/Indicator: TA98, Metabolic Activation: HAMSTER, LIVER, S-9, AROCLOR 1254 (10%), Method: PREINCUBATION
  mutagenic call: inactive; negative
[1]
  mutagenic call: inactive; negative
Test System: AMES SALMONELLA TYPHIMURIUM, Strain/Indicator: TA98, Metabolic Activation: RAT, LIVER, S-9, AROCLOR 1254 (10%), Method: PREINCUBATION
  mutagenic call: inactive; negative
Test System: AMES SALMONELLA TYPHIMURIUM, Strain/Indicator: TA100, Metabolic Activation: HAMSTER, LIVER, S-9, AROCLOR 1254 (10%), Method: PREINCUBATION
  mutagenic call: inactive; negative
[3]
  mutagenic call: inactive; negative
Test System: AMES SALMONELLA TYPHIMURIUM, Strain/Indicator: TA100, Metabolic Activation: RAT, LIVER, S-9, AROCLOR 1254 (10%), Method: PREINCUBATION
  mutagenic call: inactive; negative
Test System: AMES SALMONELLA TYPHIMURIUM, Strain/Indicator: TA1535, Metabolic Activation: HAMSTER, LIVER, S-9, AROCLOR 1254 (10%), Method: PREINCUBATION
  mutagenic call: inactive; negative
[5]
  mutagenic call: inactive; negative
Test System: AMES SALMONELLA TYPHIMURIUM, Strain/Indicator: TA1535, Metabolic Activation: RAT, LIVER, S-9, AROCLOR 1254 (10%), Method: PREINCUBATION
  mutagenic call: inactive; negative
Test System: AMES SALMONELLA TYPHIMURIUM, Strain/Indicator: TA1537, Metabolic Activation: HAMSTER, LIVER, S-9, AROCLOR 1254 (10%), Method: PREINCUBATION
  mutagenic call: inactive; negative
[6]
  mutagenic call: inactive; negative
Test System: AMES SALMONELLA TYPHIMURIUM, Strain/Indicator: TA1537, Metabolic Activation: RAT, LIVER, S-9, AROCLOR 1254 (10%), Method: PREINCUBATION
  mutagenic call: inactive; negative

## CC(=O)OC1Cc2c(C)ccc3cc4c(ccc5ccccc54)c1c23 (stereo not given)
[7]
  mutagenic call: active; positive
[8]
  mutagenic call: active; positive

## CCC(=O)OCc1ccccc1[N+](=O)[O-]
[1]
  mutagenic call: inactive; negative
[3]
  mutagenic call: inactive; negative
[4]
  mutagenic call: inactive; negative

## [O-][n+]1c2ccc3ccccc3c2cc2c3ccccc3ccc21
Test System: AMES SALMONELLA TYPHIMURIUM, Strain/Indicator: TA100, Metabolic Activation: GUINEA PIG, LIVER, S-9, 3-METHYLCHOLANTHRENE, Method: STANDARD PLATE
  mutagenic call: inactive; negative
Test System: CHINESE HAMSTER V-79, Strain/Indicator: V-79/6-THIOGUANINE, Metabolic Activation: GUINEA PIG, LIVER, S-9, 3-METHYLCHOLANTHRENE
  mutagenic call: active; positive

## O=Cc1cn([C@@H]2O[C@H](CO)[C@@H](O)[C@H]2O)c(=O)[nH]c1=O
Test System: CHINESE HAMSTER V-79, Strain/Indicator: V-79 (HPRT)/6-THIOGUANINE, Metabolic Activation: NONE, Method: STANDARD PLATE
  mutagenic call: inactive; negative

## O=[N+]([O-])c1ccc(-c2ncn[nH]2)o1
Test System: E. COLI, Strain/Indicator: WP2 UVRA, Metabolic Activation: NONE, Method: SPOT
  mutagenic call: active; positive

## Cc1ccc2nc3n(C)c4ccc(C)cc4c(C)c-3c2c1
[9]
  mutagenic call: active; positive

## Cc1ccc2cc3c4c(ccc3c3c2c1C[C@H]3O)[C@H](O)[C@@H](O)C=C4
Test System: CHINESE HAMSTER V-79, Strain/Indicator: V-79/8-AZAGUANINE, Metabolic Activation: RAT, LIVER, S-9, AROCLOR, Method: STANDARD PLATE
  mutagenic call: active; positive

## CCC1(c2ccccc2)C(=O)N=C(O)NC1=O (stereo not given)
Test System: AMES SALMONELLA TYPHIMURIUM, Strain/Indicator: TA97, Metabolic Activation: NONE, Method: STANDARD PLATE
  mutagenic call: inactive; negative
Test System: AMES SALMONELLA TYPHIMURIUM, Strain/Indicator: TA97, Metabolic Activation: RAT, LIVER, S-9, AROCLOR 1254, Method: STANDARD PLATE
  mutagenic call: inactive; negative
[7]
  mutagenic call: inactive; negative
[9]
  mutagenic call: inactive; negative
[8]
  mutagenic call: inactive; negative
Test System: AMES SALMONELLA TYPHIMURIUM, Strain/Indicator: TA100, Metabolic Activation: RAT, LIVER, S-9, AROCLOR 1254, Method: STANDARD PLATE
  mutagenic call: inactive; negative
Test System: AMES SALMONELLA TYPHIMURIUM, Strain/Indicator: TA102, Metabolic Activation: RAT, LIVER, S-9, AROCLOR 1254, Method: STANDARD PLATE
  mutagenic call: inactive; negative
Test System: AMES SALMONELLA TYPHIMURIUM, Strain/Indicator: TA1535, Metabolic Activation: NONE, Method: STANDARD PLATE
  mutagenic call: active; positive
